≈ marks a conversion by molar mass, not a printed value.
Tests used:
[1] = molecular target: T1, Voltage-gated inwardly rectifying potassium channel KCNH2 (Homo sapiens, UniProt Q12809); assay: Inhibition of human ERG
[2] = molecular target: Potassium voltage-gated channel subfamily A member 5 (Homo sapiens) (UniProt P22460); assay: Inhibition of Kv1.5 (unknown origin)
[3] = Thermodynamic solubility of the compound; type: physicochemical; settings: read-out: Therm_solubility
[4] = molecular target: T1, Voltage-gated inwardly rectifying potassium channel KCNH2; assay: Inhibition of dofetilide binding to human ERG
Cytochrome P450 1A2 = molecular target: T2, Cytochrome P450 1A2 (Homo sapiens, UniProt P05177); assay: Inhibition of CYP1A2 (unknown origin); type: ADME
T2 sequence (P05177 whole entry): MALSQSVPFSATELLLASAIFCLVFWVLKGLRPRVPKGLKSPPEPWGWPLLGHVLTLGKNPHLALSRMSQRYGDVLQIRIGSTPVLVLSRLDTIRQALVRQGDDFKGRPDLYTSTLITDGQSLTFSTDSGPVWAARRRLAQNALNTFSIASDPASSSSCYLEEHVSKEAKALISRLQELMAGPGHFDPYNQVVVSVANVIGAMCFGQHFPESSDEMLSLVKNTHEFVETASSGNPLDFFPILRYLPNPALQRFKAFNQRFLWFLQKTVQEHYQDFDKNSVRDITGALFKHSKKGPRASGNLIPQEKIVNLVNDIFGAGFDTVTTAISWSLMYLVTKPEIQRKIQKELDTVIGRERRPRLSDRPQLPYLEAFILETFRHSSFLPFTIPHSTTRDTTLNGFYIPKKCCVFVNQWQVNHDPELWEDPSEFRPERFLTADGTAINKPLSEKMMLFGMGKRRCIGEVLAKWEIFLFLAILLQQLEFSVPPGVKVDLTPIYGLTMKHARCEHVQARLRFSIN

[5] = Fraction unbound in rat plasma; type: ADME, cell-free
[6] = molecular target: Transient receptor potential cation channel subfamily A member 1 (Homo sapiens, UniProt O75762); assay: Antagonist activity at human TRPA1 oS5 chimera containing (870 to 896 residues) expressed in 293-T-REx cells at holding potential of 15 mV measured after 1 min by PatchXpress electrophysiology assay; type: cell-based

T1 sequence (Q12809 whole entry): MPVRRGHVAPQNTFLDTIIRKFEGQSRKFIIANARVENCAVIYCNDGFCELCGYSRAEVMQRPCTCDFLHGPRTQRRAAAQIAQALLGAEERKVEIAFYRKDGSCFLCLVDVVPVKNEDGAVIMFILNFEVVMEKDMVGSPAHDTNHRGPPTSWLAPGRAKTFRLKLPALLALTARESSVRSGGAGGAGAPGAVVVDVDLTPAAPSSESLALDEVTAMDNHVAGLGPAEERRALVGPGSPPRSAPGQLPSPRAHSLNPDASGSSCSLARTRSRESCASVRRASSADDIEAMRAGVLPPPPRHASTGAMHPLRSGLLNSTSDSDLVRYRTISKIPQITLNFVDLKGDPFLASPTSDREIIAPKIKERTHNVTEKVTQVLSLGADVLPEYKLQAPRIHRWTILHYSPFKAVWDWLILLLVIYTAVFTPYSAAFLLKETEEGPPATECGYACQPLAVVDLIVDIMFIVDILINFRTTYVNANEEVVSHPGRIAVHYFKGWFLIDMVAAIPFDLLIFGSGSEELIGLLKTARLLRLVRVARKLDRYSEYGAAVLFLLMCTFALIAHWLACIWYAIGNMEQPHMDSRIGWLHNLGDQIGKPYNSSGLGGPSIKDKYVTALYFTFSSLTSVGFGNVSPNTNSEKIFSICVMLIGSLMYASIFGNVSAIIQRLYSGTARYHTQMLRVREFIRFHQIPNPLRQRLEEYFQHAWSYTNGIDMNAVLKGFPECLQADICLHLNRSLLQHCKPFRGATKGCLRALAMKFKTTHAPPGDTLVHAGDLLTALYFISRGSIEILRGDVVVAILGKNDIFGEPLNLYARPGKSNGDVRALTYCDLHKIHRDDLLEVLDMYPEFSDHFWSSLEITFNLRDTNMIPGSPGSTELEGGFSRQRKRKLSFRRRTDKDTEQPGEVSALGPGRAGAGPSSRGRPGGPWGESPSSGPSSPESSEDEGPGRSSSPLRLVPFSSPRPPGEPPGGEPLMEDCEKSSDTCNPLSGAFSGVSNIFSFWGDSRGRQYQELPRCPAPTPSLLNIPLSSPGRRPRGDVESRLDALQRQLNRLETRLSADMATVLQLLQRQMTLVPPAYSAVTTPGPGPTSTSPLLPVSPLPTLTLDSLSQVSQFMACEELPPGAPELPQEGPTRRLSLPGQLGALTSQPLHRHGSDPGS
Sequence of Potassium voltage-gated channel subfamily A member 5 (Homo sapiens) (P22460 whole entry): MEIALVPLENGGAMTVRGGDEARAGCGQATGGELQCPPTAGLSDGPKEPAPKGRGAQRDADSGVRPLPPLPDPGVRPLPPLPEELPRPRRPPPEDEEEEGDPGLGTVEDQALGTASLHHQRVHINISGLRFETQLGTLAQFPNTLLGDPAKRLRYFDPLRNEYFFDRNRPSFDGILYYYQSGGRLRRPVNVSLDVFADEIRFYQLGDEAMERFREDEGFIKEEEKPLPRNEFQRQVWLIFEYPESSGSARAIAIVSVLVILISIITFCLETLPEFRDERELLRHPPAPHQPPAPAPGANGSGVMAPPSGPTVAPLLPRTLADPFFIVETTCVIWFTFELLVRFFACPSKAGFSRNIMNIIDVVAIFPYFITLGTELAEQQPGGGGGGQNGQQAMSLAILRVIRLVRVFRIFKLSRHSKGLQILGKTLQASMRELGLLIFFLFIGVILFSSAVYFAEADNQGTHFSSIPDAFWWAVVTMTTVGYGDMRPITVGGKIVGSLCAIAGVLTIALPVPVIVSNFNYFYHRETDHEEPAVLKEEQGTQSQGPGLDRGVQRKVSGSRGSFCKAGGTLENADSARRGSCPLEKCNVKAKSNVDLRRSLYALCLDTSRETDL

INH [2]: > 3000 nM
solubility thermodynamic [3]: 0.6 µg/mL (≈ 1.18 µM)
IC50 (Cytochrome P450 1A2): > 30 µM
fraction unbound [5]: 0.00057
IC50 [6]: 1.58 µM
Compound: O=C(NC[C@@H](Cc1ccccc1)N1CCC(O)(C(F)(F)F)CC1)C1(c2ccc(Cl)cc2)CCCC1
IC50 [1]: > 3 µM
Ki [4]: 25.7 µM
